How the values were obtained:
[1] = system: HCV replicon cells (1b-Con1); test: Replicon activity assay (cell-based anti-HCV activity); details: Hepatitis C virus, 72 h, three days post-dosing, replicon RNA level by real-time RT-PCR, read-out: EC50 (1b) Range
Experimental: (§1) To measure cell-based anti-HCV activity of the compounds of the present invention, replicon cells (1b-Con1) are seeded at 5000 cells/well in 96-well plates one day prior to treatment with a compound of the invention. Various concentrations of a test compound of the invention in DMSO are then added to the replicon cells, with the final concentration of DMSO at 0.5% and fetal bovine serum at 10% in the assay media. Cells are harvested three days post-dosing, and the replicon RNA level is determined using real-time RT-PCR (Taqman assay) with GAPDH RNA as endogenous control. EC50 values are calculated from experiments with 10 serial twofold dilutions of the inhibitor in triplicate. To measure cytotoxicity in replicon cells of an inhibitor, an MTS assay is performed according to the manufacturer's protocol for CellTiter 96 Aqueous One Solution Cell Proliferation Assay (Promega, Cat #G3580) three days post dosing on cells treated identically as in replicon activity assays. […] Cytotoxicity in other types of cells may be measured using the same MTS protocol.
(§2) Data were obtained using this method for selected compounds of the present invention, and are set forth below in Table 2.

[2] = Cytotoxicity assay in replicon cells (MTS); format: cell-based; details: HCV replicon cells (1b-Con1), three days post dosing, head prints EDU, method MTS, read-out: CC50 (EDU) Range
Experimental: as §1, §2

Structure (SMILES) | EC50 [1] [µM] | CC50 at 3 days [2] [µM]
C#C[C@]1(C)[C@@H]2OP(=O)(OCCCC(=O)OC3CCCC3)OC[C@H]2O[C@H]1n1ccc(=O)[nH]c1=O (stereo partly drawn) [7A or 7B] | ≤ 0.25 | –
CCOC(=O)CCCCOP1(=O)OC[C@H]2O[C@@H](n3ccc(=O)[nH]c3=O)[C@](C)(N)[C@@H]2O1 (stereo partly drawn) [21A or 21B] | > 10 | > 50
CC(C)OC(=O)CCCOP1(=O)OC[C@H]2O[C@@H](n3ccc(=O)[nH]c3=O)[C@](C)(C#N)[C@@H]2O1 (stereo partly drawn) [Compound 1A] | 1 to 10 | > 50
CC(C)OC(=O)CCCO[P@]1(=O)OC[C@H]2O[C@@H](n3ccc(=O)[nH]c3=O)[C@](C)(C#N)[C@@H]2O1 [Compound 1B] | 0.25 to 1 | > 50
CCOc1nc(N)nc2c1ncn2[C@@H]1O[C@@H]2CO[P@](=O)(OCCCC(=O)OC(C)C)O[C@H]2[C@@]1(C)N [Compound 3A] | > 10 | > 50
CCOc1nc(N)nc2c1ncn2[C@@H]1O[C@@H]2CO[P@@](=O)(OCCCC(=O)OC(C)C)O[C@H]2[C@@]1(C)N [Compound 3B] | 1 to 10 | > 50
CCCCOC(=O)CCCO[P@@]1(=O)OC[C@H]2O[C@@H](n3ccc(=O)[nH]c3=O)[C@](C)(N)[C@@H]2O1 [Compound 4A] | > 10 | > 50
CCCCOC(=O)CCCO[P@]1(=O)OC[C@H]2O[C@@H](n3ccc(=O)[nH]c3=O)[C@](C)(N)[C@@H]2O1 [Compound 4B] | 1 to 10 | > 50
C[C@@]1(N)[C@@H]2O[P@@](=O)(OCCCC(=O)OC3CCCC3)OC[C@H]2O[C@H]1n1ccc(=O)[nH]c1=O [Compound 5A] | > 10 | > 50
C[C@@]1(N)[C@@H]2O[P@](=O)(OCCCC(=O)OC3CCCC3)OC[C@H]2O[C@H]1n1ccc(=O)[nH]c1=O [Compound 5B] | > 10 | > 50
C[C@@]1(Cl)[C@@H]2O[P@@](=O)(OCCCC(=O)OC3CCCC3)OC[C@H]2O[C@H]1n1ccc(N)nc1=O [Compound 6A] | > 10 | > 50
C[C@@]1(Cl)[C@@H]2O[P@](=O)(OCCCC(=O)OC3CCCC3)OC[C@H]2O[C@H]1n1ccc(N)nc1=O [Compound 6B] | ≤ 0.25 | > 50
CC(C)OC(=O)CCCO[P@@]1(=O)OC[C@H]2O[C@@H](n3ccc(N)nc3=O)[C@](C)(Cl)[C@@H]2O1 [Compound 8A] | 1 to 10 | > 50
CC(C)OC(=O)CCCO[P@]1(=O)OC[C@H]2O[C@@H](n3ccc(N)nc3=O)[C@](C)(Cl)[C@@H]2O1 [Compound 8B] | 0.25 to 1 | > 50
CCOc1nc(N)nc2c1ncn2[C@@H]1O[C@@H]2CO[P@](=O)(OCCCC(=O)OC(C)C)O[C@H]2[C@@]1(C)Cl [Compound 9A] | > 10 | > 50
CCOc1nc(N)nc2c1ncn2[C@@H]1O[C@@H]2CO[P@@](=O)(OCCCC(=O)OC(C)C)O[C@H]2[C@@]1(C)Cl [Compound 9B] | ≤ 0.25 | > 50
CC(C)OC(=O)CCCO[P@@]1(=O)OC[C@H]2O[C@@H](n3ccc(N)nc3=O)[C@](C)(N)[C@@H]2O1 [Compound 10A] | > 10 | > 50
CC(C)OC(=O)CCCO[P@]1(=O)OC[C@H]2O[C@@H](n3ccc(N)nc3=O)[C@](C)(N)[C@@H]2O1 [Compound 10B] | > 10 | > 50
C#C[C@]1(C)[C@@H]2O[P@@](=O)(OCCCC(=O)OC(C)C)OC[C@H]2O[C@H]1n1ccc(=O)[nH]c1=O [Compound 11A] | 1 to 10 | > 50
C#C[C@]1(C)[C@@H]2O[P@](=O)(OCCCC(=O)OC(C)C)OC[C@H]2O[C@H]1n1ccc(=O)[nH]c1=O [Compound 11B] | 0.25 to 1 | > 50
CC(C)OC(=O)CCCO[P@@]1(=O)OC[C@H]2O[C@@H](n3ccc(=O)[nH]c3=O)[C@](C)(N)[C@@H]2O1 [Compound 12A] | > 10 | > 50
CC(C)OC(=O)CCCO[P@]1(=O)OC[C@H]2O[C@@H](n3ccc(=O)[nH]c3=O)[C@](C)(N)[C@@H]2O1 [Compound 12B] | > 10 | > 50
C#C[C@@]1(O)[C@@H]2O[P@@](=O)(OCCCC(=O)OC(C)C)OC[C@H]2O[C@H]1n1ccc(=O)[nH]c1=O [Compound 13A] | > 10 | > 50
C#C[C@@]1(O)[C@@H]2O[P@](=O)(OCCCC(=O)OC(C)C)OC[C@H]2O[C@H]1n1ccc(=O)[nH]c1=O [Compound 13B] | 1 to 10 | > 50
CC(C)OC(=O)CCCCO[P@@]1(=O)OC[C@H]2O[C@@H](n3ccc(=O)[nH]c3=O)[C@](C)(N)[C@@H]2O1 [Compound 14A] | > 10 | > 50

Structure (SMILES) | EC50 [1] [µM] | CC50 at 3 days [2] [µM]
CC(C)OC(=O)CCCCO[P@]1(=O)OC[C@H]2O[C@@H](n3ccc(=O)[nH]c3=O)[C@](C)(N)[C@@H]2O1 [Compound 14B] | > 10 | > 50
C#C[C@]1(C)[C@@H]2O[P@@](=O)(OCCCCC(=O)OC(C)C)OC[C@H]2O[C@H]1n1ccc(=O)[nH]c1=O [Compound 15A] | > 10 | > 50
C#C[C@]1(C)[C@@H]2O[P@](=O)(OCCCCC(=O)OC(C)C)OC[C@H]2O[C@H]1n1ccc(=O)[nH]c1=O [Compound 15B] | > 10 | > 50
C#C[C@]1(C)[C@@H]2O[P@@](=O)(OCCCCC(=O)OC3CCCC3)OC[C@H]2O[C@H]1n1ccc(=O)[nH]c1=O [Compound 16A] | > 10 | > 50
C#C[C@]1(C)[C@@H]2O[P@](=O)(OCCCCC(=O)OC3CCCC3)OC[C@H]2O[C@H]1n1ccc(=O)[nH]c1=O [Compound 16B] | 1 to 10 | > 50
C[C@@]1(N)[C@@H]2O[P@@](=O)(OCCCCC(=O)OC3CCCC3)OC[C@H]2O[C@H]1n1ccc(=O)[nH]c1=O [Compound 17A] | > 10 | > 50
C[C@@]1(N)[C@@H]2O[P@](=O)(OCCCCC(=O)OC3CCCC3)OC[C@H]2O[C@H]1n1ccc(=O)[nH]c1=O [Compound 17B] | 1 to 10 | > 50
CC(C)OC(=O)CCCCO[P@@]1(=O)OC[C@H]2O[C@@H](n3ccc(=O)[nH]c3=O)[C@](C)(Cl)[C@@H]2O1 [Compound 18A] | 1 to 10 | > 50
CC(C)OC(=O)CCCCO[P@]1(=O)OC[C@H]2O[C@@H](n3ccc(=O)[nH]c3=O)[C@](C)(Cl)[C@@H]2O1 [Compound 18B] | 1 to 10 | > 50
C[C@@]1(Cl)[C@@H]2O[P@@](=O)(OCCCCC(=O)OC3CCCC3)OC[C@H]2O[C@H]1n1ccc(=O)[nH]c1=O [Compound 19A] | 1 to 10 | > 50
C[C@@]1(Cl)[C@@H]2O[P@](=O)(OCCCCC(=O)OC3CCCC3)OC[C@H]2O[C@H]1n1ccc(=O)[nH]c1=O [Compound 19B] | 0.25 to 1 | > 50
C#C[C@]1(C)[C@@H]2O[P@@](=O)(OCCCCC(=O)OCC)OC[C@H]2O[C@H]1n1ccc(=O)[nH]c1=O [Compound 20A] | > 10 | > 50
C#C[C@]1(C)[C@@H]2O[P@](=O)(OCCCCC(=O)OCC)OC[C@H]2O[C@H]1n1ccc(=O)[nH]c1=O [Compound 20B] | > 10 | > 50
C#C[C@]1(C)[C@@H]2O[P@@](=O)(OCCCCC(=O)OC)OC[C@H]2O[C@H]1n1ccc(=O)[nH]c1=O [Compound 22A] | > 10 | > 50
C#C[C@]1(C)[C@@H]2O[P@](=O)(OCCCCC(=O)OC)OC[C@H]2O[C@H]1n1ccc(=O)[nH]c1=O [Compound 22B] | > 10 | > 50
COC(=O)CCCCO[P@@]1(=O)OC[C@H]2O[C@@H](n3ccc(=O)[nH]c3=O)[C@](C)(Cl)[C@@H]2O1 [Compound 23A] | 0.25 to 1 | > 50
COC(=O)CCCCO[P@]1(=O)OC[C@H]2O[C@@H](n3ccc(=O)[nH]c3=O)[C@](C)(Cl)[C@@H]2O1 [Compound 23B] | 1 to 10 | > 50
C#C[C@@]1(O)[C@@H]2O[P@@](=O)(OCCCCC(=O)OC3CCCC3)OC[C@H]2O[C@H]1n1ccc(=O)[nH]c1=O [Compound 24A] | 1 to 10 | > 50
C#C[C@@]1(O)[C@@H]2O[P@](=O)(OCCCCC(=O)OC3CCCC3)OC[C@H]2O[C@H]1n1ccc(=O)[nH]c1=O [Compound 24B] | ≤ 0.25 | > 50
CC(C)OC(=O)CCCCCO[P@@]1(=O)OC[C@H]2O[C@@H](n3ccc(=O)[nH]c3=O)[C@](C)(N)[C@@H]2O1 [Compound 25A] | > 10 | –
CC(C)OC(=O)CCCCCO[P@]1(=O)OC[C@H]2O[C@@H](n3ccc(=O)[nH]c3=O)[C@](C)(N)[C@@H]2O1 [Compound 25B] | > 10 | –
C#C[C@]1(C)[C@@H]2O[P@@](=O)(OCCC(=O)OC(C)C)OC[C@H]2O[C@H]1n1ccc(=O)[nH]c1=O [Compound 26A] | > 10 | > 50
CC(C)OC(=O)CCO[P@@]1(=O)OC[C@H]2O[C@@H](n3ccc(=O)[nH]c3=O)[C@](C)(Cl)[C@@H]2O1 [Compound 27A] | 1 to 10 | –
CC(C)OC(=O)CCO[P@]1(=O)OC[C@H]2O[C@@H](n3ccc(=O)[nH]c3=O)[C@](C)(Cl)[C@@H]2O1 [Compound 27B] | 1 to 10 | –
